Reference: US6593335B1, “Potassium channel openers” (Abbott Laboratories, priority 1997, dated 2003)
Where “and” joins values, the source holds several entries; their conditions need not be identical. Equal values may be shown once.

Experiments:
[1] = biological target: potassium channels (Cavia porcellus, UniProt A0A286XYR9); experiment: Membrane hyperpolarization (MHP) assay in primary cultured guinea-pig urinary bladder (GPB) cells, DiBAC(4)3 FLIPR; format: cell-based; conditions: for MHP in GPB Cells Maximal Response (% P1075): maximal steady-state hyperpolarization relative to reference P1075 (assigned as 100%); for EC50: concentration that elicits 50% of the maximal response for the test sample
potassium channels (Cavia porcellus, UniProt A0A286XYR9), sequence (A0A286XYR9 1-1546): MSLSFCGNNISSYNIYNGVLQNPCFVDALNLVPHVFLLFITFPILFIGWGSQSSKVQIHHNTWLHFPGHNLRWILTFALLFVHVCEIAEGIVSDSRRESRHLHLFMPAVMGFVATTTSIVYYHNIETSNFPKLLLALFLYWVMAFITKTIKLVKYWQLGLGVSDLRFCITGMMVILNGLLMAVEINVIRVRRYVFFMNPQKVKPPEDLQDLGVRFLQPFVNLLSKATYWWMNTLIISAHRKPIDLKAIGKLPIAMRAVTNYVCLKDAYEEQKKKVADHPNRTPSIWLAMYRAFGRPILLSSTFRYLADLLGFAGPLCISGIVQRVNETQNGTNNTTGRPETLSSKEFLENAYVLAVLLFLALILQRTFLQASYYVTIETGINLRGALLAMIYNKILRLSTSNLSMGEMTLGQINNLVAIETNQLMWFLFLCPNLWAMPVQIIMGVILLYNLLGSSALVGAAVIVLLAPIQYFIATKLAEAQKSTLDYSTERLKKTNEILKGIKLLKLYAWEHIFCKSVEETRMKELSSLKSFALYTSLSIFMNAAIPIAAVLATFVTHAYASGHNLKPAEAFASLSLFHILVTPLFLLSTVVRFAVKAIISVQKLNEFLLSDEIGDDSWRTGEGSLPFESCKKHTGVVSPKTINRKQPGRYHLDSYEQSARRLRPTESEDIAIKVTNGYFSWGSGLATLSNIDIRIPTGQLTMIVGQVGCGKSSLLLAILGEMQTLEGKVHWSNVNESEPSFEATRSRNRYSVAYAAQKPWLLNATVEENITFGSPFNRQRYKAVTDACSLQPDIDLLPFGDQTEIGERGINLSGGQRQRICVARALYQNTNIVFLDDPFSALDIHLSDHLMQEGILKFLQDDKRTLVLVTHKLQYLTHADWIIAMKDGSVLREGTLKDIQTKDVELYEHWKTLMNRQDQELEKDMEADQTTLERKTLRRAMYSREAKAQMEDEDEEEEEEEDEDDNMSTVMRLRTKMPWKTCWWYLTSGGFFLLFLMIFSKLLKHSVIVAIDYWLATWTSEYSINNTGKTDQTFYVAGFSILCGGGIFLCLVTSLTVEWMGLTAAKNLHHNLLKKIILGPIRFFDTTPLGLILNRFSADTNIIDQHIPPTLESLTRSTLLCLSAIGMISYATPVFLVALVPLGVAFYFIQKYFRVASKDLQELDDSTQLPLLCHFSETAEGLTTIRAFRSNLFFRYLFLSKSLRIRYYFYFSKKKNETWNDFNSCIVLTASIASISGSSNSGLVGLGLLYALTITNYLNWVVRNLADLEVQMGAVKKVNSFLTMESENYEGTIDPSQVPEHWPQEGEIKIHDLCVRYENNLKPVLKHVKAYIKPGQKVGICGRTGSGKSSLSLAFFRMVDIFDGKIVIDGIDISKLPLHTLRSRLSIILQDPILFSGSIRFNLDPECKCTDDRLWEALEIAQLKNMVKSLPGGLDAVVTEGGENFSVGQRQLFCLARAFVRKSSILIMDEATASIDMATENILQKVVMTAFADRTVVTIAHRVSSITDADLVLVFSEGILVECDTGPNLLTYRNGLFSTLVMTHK
potassium channels (Cavia porcellus, UniProt A0A286XYR9), sequence (Q9JHJ9 whole entry partner): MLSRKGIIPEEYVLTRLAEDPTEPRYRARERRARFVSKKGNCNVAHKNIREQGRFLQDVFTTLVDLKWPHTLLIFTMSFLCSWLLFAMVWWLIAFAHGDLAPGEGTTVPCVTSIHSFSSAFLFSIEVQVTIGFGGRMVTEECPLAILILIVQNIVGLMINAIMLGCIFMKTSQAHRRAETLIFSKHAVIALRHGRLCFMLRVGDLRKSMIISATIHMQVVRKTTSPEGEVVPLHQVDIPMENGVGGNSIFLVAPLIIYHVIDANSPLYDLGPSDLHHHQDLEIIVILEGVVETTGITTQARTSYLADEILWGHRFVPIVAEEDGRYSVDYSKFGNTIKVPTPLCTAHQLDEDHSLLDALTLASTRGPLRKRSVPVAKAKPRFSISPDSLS
Description: Determination of Potassium Channel Opening Activity Membrane Hyperpolarization Assays Compounds were evaluated for potassium channel opening activity using the rat thoracic aorta smooth muscle AI 0 cell line or primary cultured guinea-pig urinary bladder (GPB) cells. The AI0 cell line was purchased from the American Type Culture Collection (Rockville, MD; Cat # 30-2002). […] Louis, MO) and 0.2 mg/mL ronase (Calbiochem, La Jolla, CA) with continuous stirring in a cell incubator for 30 minutes. The mixture was then centrifuged at 1300 x g for 5 minutes, and the pellet resuspended in Dulbecco's PBS (GIBCO, Gaithersburg, MD) and recentrifuged to remove residual enzyme. […] Cells were confirmed to be of smooth muscle type by cytoskeletal staining using a monoclonal mouse anti human-a-smooth muscle actin (Biomeda, Foster City, CA). Functional activity at potassium channels was measured by evaluating changes in membrane potential using the bis-oxonol dye DiBAC(4)3 (Molecular Probes) in a 96-well cell-based kinetic assay system, Fluorescent Imaging Plate Reader (FLIPR) (K.S. Schroeder et al., J. Biomed. Screen., v. I pp. 75-81 (1996)). DiBAC(4)3 is an anionic potentiometric probe which partitions between cells and extracellular solution in a membrane potential-dependent manner. With increasing membrane potential (for example, K+depolarization), the probe further partitions into the cell; this is measured as an increase in fluorescence due to dye interaction with intracellular lipids and proteins. Conyersely, decreasing membrane potential (hyperpolarization by potassium channel openers) evokes a decrease in fluorescence. […] HEPES, 20; NaCl, 120; KCl, 2; CaC'2, 2; MgCl2, 1; glucose, 5; pH 7.4 at 25 ° C.) containing 5 µM DiBAC(4)3 and incubated with […] of the buffer in a cell incubator for 30 minutes at 37 OC to ensure dye distribution across the membrane. After recording the baseline fluorescence for 5 minutes, the reference or test compounds, prepared at 10 times the concentration in the assay buffer, were added directly to the wells. Changes in fluorescence were monitored for an additional 25 minutes. […] Pharmacol., v. 43 pp. 474-481 (1993)). Routinely, five concentrations of […] or test compounds (log or half-log dilutions) were evaluated and the maximal steady-state hyperpolarization values (expressed as % relative to […]) plotted as a function of concentration. […] The maximal response of each compound (expressed as % relative to […]) is reported.

[2] = biological target: potassium channels (Sus scrofa, UniProt F1SR11); experiment: Functional potassium channel opening activity in isolated Landrace pig bladder strips (field-stimulated twitch); conditions: for Landrace Pig Bladder Index: ED50 for P1075 divided by ED50 for the test agonist, averaged over tissues; for Landrace Pig Bladder pD2: negative logarithm of ED50; for Emax: pig
Outline: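 Landrace pig bladder strips with the mucosa removed were field-stimulated (0.05 Hz, 0.5 ms, 20 V) in Krebs Ringer bicarbonate containing propranolol, and primed with 80 mM KCl. Cumulative concentration-response curves gave maximal efficacy relative to a reference potassium channel opener, pD2, and a potency index (reference ED50/test ED50) averaged across tissues.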

[3] = maximal efficacy relative to P1075, field stimulation 0.05Hz, 0.5 milli-seconds at 20 volts

| Compound | MHP in GPB Cells Maximal Response (% P1075) [1] | Landrace Pig Bladder Index [2] | Landrace Pig Bladder pD2 [2] | Emax [2, 3] [%] | melting point [°C] | EC50 [1] [µM] | Landrace Pig Bladder Efficacy (% P1075) [2, 3] [% P1075] |
| --- | --- | --- | --- | --- | --- | --- | --- |
| 8-(3-bromo-4-fluorophenyl)-6-trifluoromethyl-5,8-dihydrothiopyrano[3 .2-b]pyridine, 1,1-dioxide [Example 159] | 100 % P1075 | – | – | – | – | – | – |
| O=S1(=O)CCCC2=C1C(c1ccc(F)c(Br)c1)C1=C(CCCS1(=O)=O)N2 [Example 54, 10-(3-bromo-4-fluorophenyl)-3,4,6,7,8,10-hexahydro-2H,5H-dithiopyrano [3,2-b:2′,3′-e]pyridine, 1,1,9,9-tetraoxide] | 107 % P1075 and 133 % P1075 | 0.015 | 4.9 | – | – | – | 89 |
| CC(=O)C1=C(C)NC2=C(C1c1ccc(F)c(Br)c1)S(=O)(=O)CCC2 (centres unmarked) [Example 66, 1-[8-(3-bromo-4-fluorophenyl)-3,4,5,8-tetrahydro-6-methyl-1.-dioxido-2H-thiopyrano[3,2-b]pyridin-7-yl)lethan-1-one] | – | 0.12 | 6.3 | 94 | > 260 | – | – |
| CC1=C(C(=O)O)C(c2ccc(F)c(Br)c2)C2=C(CCS2(=O)=O)N1 (centres unmarked) [Example 106, 7-(3-bromo-4-fluorophenyl)-5-methyl-2,3,4,7-tetrahydrothieno[3.2-b]pyridine-6-carboxylic acid, 1,1-dioxide] | – | 0.014 | 5.1 | 98 | 220 to 223 | – | – |
| CC1=C(C(=O)O)C(c2ccc(F)c(Br)c2)C2=C(CCCS2(=O)=O)N1 (centres unmarked) [Example 107] | – | 0.015 | 5.2 | 100 | 208 to 210 | – | – |
| O=S1(=O)CCC2=C1C(c1ccc(Cl)c(C(F)(F)F)c1)C1=C(CCS1(=O)=O)N2 [Example 122] | – | 0.012 | 4.8 | 94 | > 260 | – | – |
| CC1(C)CCC2=C(C1=O)C(c1cc(Cl)cc(Br)c1O)C1=C(CCS1(=O)=O)N2 (centres unmarked) [Example 199, 9-(3-bromo-5-chloro-2-hydroxyphenyl)-7,7-dimethyl-2,3.5.6,7,9-hexahydrothieno[3.2-b]quinolin-8(4H)-one 1,1-dioxide] | 12 % P1075 | – | – | – | – | > 10 | – |
| CC1(C)CCC2=C(C1=O)C(c1cc(Br)c(O)c(Br)c1)C1=C(CCS1(=O)=O)N2 (centres unmarked) [Example 207] | 92 % P1075 | – | – | – | – | 1.2 | – |

The next lines start with results.

| MHP in GPB Cells Maximal Response (% P1075) [1] | Landrace Pig Bladder Index [2] | Landrace Pig Bladder pD2 [2] | Emax [2, 3] [%] | melting point [°C] | EC50 [1] [µM] | Compound | Landrace Pig Bladder Efficacy (% P1075) [2, 3] [% P1075] |
| --- | --- | --- | --- | --- | --- | --- | --- |
| – | 0.15 | 6.3 | 100 | 251 to 254 | – | O=C1CCC2=C1C(c1ccc([N+](=O)[O-])s1)C1=C(CCS1(=O)=O)N2 (centres unmarked) [Example 70] | – |
| – | 0.0022 | 4.4 | 98 | 248 to 252 | – | O=[N+]([O-])c1cccc(C2C3=C(CCS3(=O)=O)NC3=C2S(=O)(=O)CC3)c1 [Example 73] | – |
| – | 0.081 | 6.1 | 100 | > 260 | – | O=S1(=O)CCC2=C1C(c1ccc(F)c(Cl)c1)C1=C(CCS1(=O)=O)N2 [Example 74] | – |
| – | 0.046 | 5.5 | 93 | > 260 | – | O=S1(=O)CCC2=C1C(c1ccc(Cl)c(Cl)c1)C1=C(CCS1(=O)=O)N2 [Example 77] | – |
| – | 0.39 | 6.4 | 91 | > 260 | – | O=C1CCCC2=C1C(c1ccc(F)c(Cl)c1)C1=C(CCS1(=O)=O)N2 (centres unmarked) [Example 81, 9-(3-chloro-4-fluorophenyl)-2,3,5,6,7,9-hexahydrothieno [3.2-b]quinolin-8(4H)-one, 1 1-dioxide] | – |
| – | 0.16 | 6.3 | 100 | > 270 | – | CC1(C)CCC2=C(C1=O)C(c1ccc(F)c(Br)c1)C1=C(CCS1(=O)=O)N2 (centres unmarked) [Example 116, 9-(3-bromo-4-fluorophenyl)-7,7-dimethyl-2,3,5,6,7,9-hexahydrothieno[3.2-b]quinolin-8(4H)-one, 1,1-dioxide] | – |
| – | 0.0047 | 4.5 | 98 | > 260 | – | O=S1(=O)CCC2=C1C(c1ccc3nonc3c1)C1=C(CCS1(=O)=O)N2 [Example 123] | – |
| – | 0.025 | 5.3 | 99 | > 260 | – | O=S1(=O)CCC2=C1C(c1ccc(Br)c(Br)c1)C1=C(CCS1(=O)=O)N2 [Example 124] | – |
| 51 % P1075 | – | – | – | – | 10 | CC1(C)CCC2=C(C1=O)C(c1cccc([N+](=O)[O-])c1)C1=C(CCS1(=O)=O)N2 (centres unmarked) [Example 189, 7,7-dimethyl-9-(3-nitrophenyl)-2,3,5,6,7,,9-hexahydrothieno[3.2-b]guinolin-8(4H)-one 1,1-dioxide] | – |
